Data on three compounds can be found in US20200038478A1, “POLYPEPTIDE AND COMPOSITION THEREOF FOR TREATING DISEASES OF METABOLIC SYSTEM” (WUHAN GRECTECH CO., LTD., priority 2017, published 2020).

In series [1] the test system is mouse models of type 2 diabetes. Briefly: Oral glucose tolerance test after 4-week treatment (Example 20). It counts as in vivo, KK mice. The following applies: glucose 2.5 g/kg by gavage one hour after last dose of 4-week gavage treatment. Here is the method: 2.4 Oral glucose tolerance test: one hour after the last administration, the remaining mice in the diabetic model control group, metformin treatment group, polypeptide treatment group and normal control group (10 mice in each group) after the selection in experiment 2.3 were administered by gavage with glucose at a dose of 2.5 g/kg.

Series [2] shares this test system. As to the kind of experiment: Blood glucose during 4-week gavage treatment, polypeptide mixture vs metformin (Example 20). The following applies: KK mice, metformin 20 mg/mL, each 0.05 ml/10 g.
The test system is the same in series [3]. As to the kind of experiment: Polypeptide mixture vs metformin, mouse models of type 2 diabetes, single gavage (Example 17). The following applies: KK mice, polypeptide 2 mg/mL, metformin 20 mg/mL, each 0.05 ml/10 g.
The test system is the same in series [4]. As to the kind of experiment: Insulin tolerance test after 4-week treatment (Example 20). It counts as in vivo, KK mice. The note with it: insulin 0.5 U/mL at 0.05 ml/10 g s.c. one hour after last dose of 4-week gavage treatment.
For series [5], the system named is diabetic mice. As to the kind of experiment: Fasting blood glucose in STZ diabetic mice, intragastric 4 weeks (Example 25). It counts as in vivo, BALB/c mice. Here is the method: (§1) Male BALB/c mice at 7 weeks of age, after adapting to the environment for 2 days, were randomly divided into normal control group (10 mice) and model-to-be established groups (70 mice). The mice in the normal control group were fed with normal diet. The mice in the model-to-be established groups were fed with high-fat diet, intraperitoneally injected with streptozotocin (STZ) in citrate buffer at a dose of 100 mg/kg, and then the diabetic mouse model was established. […] The mice with the blood glucouse level higher than 11.0 mmol/L and at the same time having polydipsia and polyuria were selected out as the diabetic mice. Then the selected diabetic mice were randomly divided into four groups: model control group, metformin group, Composition E group and Composition F group, 10 mice in each group. The mice were intragastric administered with the corresponding drugs: normal saline (100 μL for each mouse), metformin (0.05 ml/10 g), Composition E (0.05 ml/10 g) and Composition F (0.05 ml/10 g), respectively, once a day for 4 weeks. The mice in normal control group were administered with normal saline (100 μL for each mouse). The diabetic mice were fed with high-fat diet continuously and drank water freely, and the mice in normal control group were fed with normal diet and drank water freely.

In series [6] the test system is mouse models of type 2 diabetes. As to the kind of experiment: Hypoglycemic activity of solid compositions, STZ/high-fat diet diabetic mice, gavage 4 weeks (Example 24). The following applies: fasting; STZ + high-fat diet C57BL/6 mice; gavage once a day; compositions 2 mg/mL polypeptide O, metformin 20 mg/mL (100 mg/Kg), each 0.05 ml/10 g. It counts as in vivo. Here is the method: Male C57BL/6 mice at 4 weeks of age, after adapting to the environment for 5 days, were randomly divided into normal control group (10 mice) and model-to-be established groups (90 mice). The mice in the normal control group were fed with normal diet. The mice in the model-to-be established groups were fed with high-fat diet and intraperitoneally injected with streptozotocin (STZ) in citrate buffer at a dose of 45 mg/kg. After injection, the mice were fasted for 1.5 hours and injected for 5 consecutive days, and then the diabetic mouse model was established. […] The mice with the fasting blood glucouse level between 10.0 and 20.0 mmol/L and at the same time having polydipsia and polyuria were selected out as the diabetic mice. Then, the selected diabetic mice were randomly divided into five groups: model control group, metformin group, Composition D group, […], and […], 10 mice in each group. The mice were administered by gavage with the corresponding drug: normal saline (100 μL for each mouse), metformin (0.05 ml/10 g), composition D (0.05 ml/10 g), composition E (0.05 ml/10 g) and composition F (0.05 ml/10 g), respectively, once a day for 4 weeks. The mice in normal control group were administered with normal saline (100 μL for each mouse). The diabetic mice were fed with high-fat diet continuously and drank water freely, and the mice in normal control group were fed with normal diet and drank water freely.

For series [7], the system named is diabetic mice. As to the kind of experiment: Serum TC and TG in STZ diabetic mice after 4 weeks (Example 25). It counts as in vivo. The note with it: after 4 weeks intragastric treatment, STZ + high-fat diet BALB/c mice. Here is the method: as §1, with “The diabetic mice were fed with high-fat diet continuously and drank water freely, and the mice in normal control group were fed with normal diet and drank water freely.” left out
After the end of experiment, blood samples were collected from the eyeballs of the mice, serum was separated and the serum levels of TC and TG were detected.

Series [8] deals with mouse models of type 2 diabetes. Briefly: Pancreas weight, H&E staining and immunohistochemistry after 4-week treatment (Example 20). It counts as in vivo. The following applies: KK mice sacrificed after treatment for four weeks by gavage. The text has this: 2.5 All mice were sacrificed after treatment for four weeks, and the pancreatic tissues were weighed, stained with H&E and detected by immunohistochemistry.

Series [9] concerns the target T1, pepsin (Sus scrofa, UniProt P00791).
T1 construct: purchased Sigma-Aldrich Company Ltd
Briefly: Stability against pepsin in simulated gastric fluid, HPLC (Example 16). It counts as in vitro ADME. The following applies: pH 1.5, 1 g pepsin per 100 mL, 37° C., 2 hours. On the procedure: (§2) Polypeptides were subject to enzymatic hydrolysis in simulated gastric and simulated intestinal fluids, respectively, to verify whether the polypeptides were resistance to the enzymatic hydrolysis of digestive enzymes. Control experiments were performed with albumin.
Preparation of simulated gastric fluid: water was added to diluted hydrochloric acid with a concentration of 1 mol/L, to adjust the pH to 1.5. 1 g pepsin per 100 mL solution was added, and after homogeneously mixing, the solution was filtered through a 0.22 μm sterile filter for use.
(§3) 10 μL of the polypeptide solution (10 mg/mL) was added to the simulated gastric fluid (1 mL) and simulated intestinal fluid (1 mL), respectively, and after homogeneously mixing, the mixtures were incubated in a water bath at 37° C. for 2 hours.
(§4) 1 mg of dried albumin powder was added to the simulated gastric fluid (1 mL) and simulated intestinal fluid (1 mL), respectively, and after homogeneously mixing, the mixtures were incubateed in a water bath at 37° C. for 2 hours.
(§5) The above enzymatic mixtures were detected by using HPLC.
(§6) Chromatographic conditions: mobile phase, water (containing 0.1% TFA)+acetonitrile (containing 0.1% TFA), gradient elution from 15% to 50% acetonitrile for 25 min, flow rate of 1 mL/min, detection wavelength of 214 nm, injection volume of 20 ul.

The test system of series [10] is trypsin. Briefly: Stability against trypsin in simulated intestinal fluid, HPLC (Example 16). It counts as in vitro ADME. The note with it: pH 6.8, 1 g trypsin per 100 mL, 37° C., 2 hours. On the procedure: as §2
Preparation of simulated intestinal fluid: 6.8 g of potassium dihydrogen phosphate was dissolved in 500 mL water, 0.4% (w/w) NaOH was added to adjust the pH to 6.8, and water was added to make up 1 L. 1 g trypsin per 100 mL solution was added, and after homogeneously mixing, the solution was filtered through a 0.22 μm sterile filter for use.
as §3, §4, §5, §6

In series [11] the test system is mouse models of type 2 diabetes. Briefly: Polypeptide mixture vs insulin, mouse models of type 2 diabetes, subcutaneous injection (Example 14). The note with it: KK mice, single subcutaneous injection on the back, polypeptide 2 mg/mL, insulin 0.5 U/mL, each 0.05 ml/10 g.
The test system is the same in series [12]. Briefly: Polypeptide mixture vs insulin, mouse models of type 2 diabetes, tail vein injection (Example 13). The note with it: KK mice, single tail vein injection, polypeptide 2 mg/mL, insulin 0.5 U/mL, each 0.05 ml/10 g.
Series [13] has the same test system. As to the kind of experiment: Polypeptide mixture vs insulin, mouse models of type 2 diabetes, intramuscular injection (Example 15). The following applies: KK mice, single intramuscular injection in the lateral thigh, polypeptide 2 mg/mL, insulin 0.5 U/mL, each 0.05 ml/10 g.
The test system of series [14] is normal mice. As to the kind of experiment: Polypeptide vs insulin on normal mice after tail vein injection (Example 10). The following applies: single tail vein injection, polypeptide 2 mg/mL at 0.05 ml/10 g (10 mg/kg), insulin 0.5 U/mL (2.5 U/kg). It counts as in vivo, Kunming white mice.
[15] abbreviates: gavage once a day, polypeptide tablet suspension 2 mg/ml.
[16] abbreviates: fasting, STZ (100 mg/kg) + high-fat diet BALB/c mice, intragastric once a day, compositions 2 mg/mL polypeptide O, metformin 200 mg/mL (1000 mg/kg), each 0.05 ml/10 g.

Where a name gives a salt, the structure may show the parent alone.

T1 sequence (P00791 60-385): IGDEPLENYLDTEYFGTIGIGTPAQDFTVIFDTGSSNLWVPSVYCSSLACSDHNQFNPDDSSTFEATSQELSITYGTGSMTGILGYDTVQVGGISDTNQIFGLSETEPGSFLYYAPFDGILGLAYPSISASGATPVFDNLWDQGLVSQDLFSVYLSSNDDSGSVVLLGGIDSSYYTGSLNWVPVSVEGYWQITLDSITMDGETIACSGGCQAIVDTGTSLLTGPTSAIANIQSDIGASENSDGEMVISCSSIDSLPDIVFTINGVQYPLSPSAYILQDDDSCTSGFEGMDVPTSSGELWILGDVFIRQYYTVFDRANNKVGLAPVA

Regarding `CN(C)C(=N)N=C(N)N` [Metformin, Metformin hydrochloride], in series [1], the “0 min blood glucose level” value is on record as 6.8 ± 0.8 mmol/L, the “30 min blood glucose level” value was 16.8 ± 4.1 mmol/L, the “60 min blood glucose level” value is listed as 13.4 ± 2.4 mmol/L and the “90 min blood glucose level” value stood at 10.6 ± 3.2 mmol/L. Moreover, the “120 min blood glucose level” value in series [1] is reported as 8.2 ± 1.7 mmol/L. Further, the “Initial blood glucose level” value in series [2] (gavage once a day for 4 weeks, polypeptide tablets (mixture:hydroxypropyl methylcellulose 8:2) suspension 2 mg/ml, baseline) amounted to 9.3 ± 1.1 mmol/L. For the same compound, in [2] (setting [15]), the “Blood glucose level after four weeks” value is 6.8 ± 0.8 mmol/L, the “Blood glucose level after one week” value was found to be 8.1 ± 1.1 mmol/L, the “Blood glucose level after three weeks” value is reported as 7.3 ± 1.2 mmol/L and the “Blood glucose level after two weeks” value turned out to be 7.2 ± 0.9 mmol/L. Further, in [3], the “Blood glucose level at 15 min after administration” value is 12.6 ± 1.2 mmol/L, the “Blood glucose level at 30 min after administration” value is 10.4 ± 0.9 mmol/L, the “Blood glucose level at 45 min after administration” value was 9.3 ± 0.8 mmol/L and the “Blood glucose level at 60 min after administration” value came out at 8.2 ± 0.5 mmol/L. Moreover, the “Blood glucose level prior to administration” value in series [3] (baseline) is 14.2 ± 1.1 mmol/L. Besides, in [4], the “0 min blood glucose level” value is 6.8 ± 0.8 mmol/L, the “30 min blood glucose level” value worked out at 4.1 ± 1.1 mmol/L, the “60 min blood glucose level” value stood at 4.8 ± 1.2 mmol/L and the “90 min blood glucose level” value is recorded as 5.4 ± 0.7 mmol/L. In [4], the “120 min blood glucose level” value was 6.2 ± 1.3 mmol/L. Besides, in series [5] (setting [16]), the “Blood glucose level after four weeks” value is given as 8.0 ± 0.7 mmol/L, the “Blood glucose level after one week” value is 12.6 ± 0.7 mmol/L, the “Blood glucose level after three weeks” value came to 12.3 ± 1.0 mmol/L and the “Blood glucose level after two weeks” value was 13.5 ± 0.7 mmol/L. The “control of blood glucose (conclusion)” value in [5] (metformin at ultra-high-dose 1000 mg/kg) was “could not control blood glucose effectively”. For the same compound, in [6], the “Blood glucose level after four weeks” value is reported as 9.2 ± 0.9 mmol/L, the “Blood glucose level after one week” value is 11.9 ± 0.6 mmol/L, the “Blood glucose level after three weeks” value was 11.3 ± 1.2 mmol/L and the “Blood glucose level after two weeks” value came to 13.2 ± 0.5 mmol/L. In [7], the “TC” value is given as 2.32 ± 0.78 mmol/L and the “TG” value came out at 1.87 ± 1.26 mmol/L. Moreover, in series [8], the “Pancreas weight/body weight (%)” value stood at 1.32 ± 0.06%.

Regarding “Albumin: Serum albumin (bovine) standard”, in series [9], the “enzymatic hydrolysis in simulated gastric fluid” value is on record as “completely enzymatically hydrolyzed”. In [10], the “enzymatic hydrolysis in simulated intestinal fluid” value was “completely enzymatically hydrolyzed”.

On to Insulin, for which the “Blood glucose level at 15 min after administration” value came out at 8.8 ± 0.8 mmol/L in series [11], 8.5 ± 0.7 mmol/L in series [12], 11.1 ± 0.9 mmol/L in series [13] and 5.2 ± 0.4 mmol/L in [14]. For the same compound, the “Blood glucose level at 30 min after administration” value in series [11] is 7.1 ± 0.7 mmol/L; in [12], 7.5 ± 0.4 mmol/L; in series [13], 9.6 ± 0.7 mmol/L; in series [14] it was 3.6 ± 0.3 mmol/L. The “Blood glucose level at 45 min after administration” value in series [11] was determined as 6.4 ± 0.5 mmol/L; in series [12] it was 6.1 ± 0.4 mmol/L; in [13] it was 7.3 ± 0.8 mmol/L; in [14] it was 2.7 ± 0.4 mmol/L. The “Blood glucose level at 60 min after administration” value was found to be 5.0 ± 0.4 mmol/L in [11], 4.8 ± 0.3 mmol/L in series [12], 5.2 ± 0.4 mmol/L in series [13] and 2.2 ± 0.2 mmol/L in series [14]. In addition, the “Blood glucose level prior to administration” value amounted to 11.6 ± 1.1 mmol/L in series [11] (baseline), 14.3 ± 0.9 mmol/L in [12] (baseline), 13.4 ± 1.1 mmol/L in [13] (baseline) and 7.7 ± 0.6 mmol/L in series [14] (baseline).
